System: NIH3T3 fibroblast cells
Assay: Dox internalization in cells incubated in Dox solution (FIG. 7)
Assay type: cell-based, mice
Conditions: cells incubated 24 and 36 h in 17 μM Dox solution
Description: FIGS. 7A-D provide (A,B) Overlaid optical microscopy and fluorescence images (λex=481 nm) showing extent of Dox internalization in NIH3T3 fibroblast cells after 24 and 36 h incubation in 17 μM Dox solution (for comparison, the Dox concentration that was released from 1-cm^2 nano-patterned PEM to 1-mL solution was ˜14 μM as shown in FIG. 4F). Cells were cultured for 2 days prior to incubation.

COc1cccc2c1C(=O)c1c(O)c3c(c(O)c1C2=O)C[C@@](O)(C(=O)CO)C[C@@H]3O[C@H]1C[C@H](N)[C@H](O)[C@H](C)O1 [Dox, doxorubicin]
time for the drug to penetrate the cell membrane, versus release from PEM: much longer time was needed

Source: patent US20210154472A1, “ELECTRICALLY RESPONSIVE, NANOPATTERNED SURFACE FOR TRIGGERED INTRACELLULAR DELIVERY OF BIOLOGICALLY ACTIVE MOLECULES” (Yissum Research Development Company of the Hebrew …, priority 2019, published 2021)
